Laboratory results as given in patent publication US20100310591A1 (priority 2009, published 2010).

Test system: CD4+ T cells (CD8+ depleted PBMC of rHA-responsive donors)
Assay type: cell-based, human
Settings: not given

Q: With YQNPTTYISVGTSTLNQ [BEI 36] as the substance, how does the “recognition frequency among donors” value read?
A: 21%

Q: For KRGLFGAIAGFIEGGWQ [BEI 59], which “recognition frequency among donors” value is on record?
A: 21%

Q: Which “in vitro CD4 response, fold above background” value does the source give for STLNQRLVPRIATRSKV [BEI 38] here?
A: 13 fold above background

Q: Which “in vitro CD4 response, fold above background” value does the source give for WLIKKNSTYPTILRSYN [BEI 29] here?
A: 3.6 fold above background

Q: With PLILRDCSVAGWLLGNP [BEI 12] as the substance, how does the “in vitro CD4 response, fold above background” value read?
A: 3.3 fold above background

Q: Which “in vitro CD4 response, fold above background” value does the source give for LVPRIATRSKVNGQSGR [BEI 39] here?
A: 3.8 fold above background

Q: For LRNSPQRERRRKKRGLF [BEI 57], which “in vitro CD4 response, fold above background” value is on record?
A: 4.1 fold above background

Q: Which “in vitro CD4 response, fold above background” value does the source give for MEKNVTVTHAQDUKEKT [BEI 7] here?
A: 12 fold above background

Q: For VTHAQDILEKTHNGKL [BEI 8], which “in vitro CD4 response, fold above background” value is on record?
A: 3.4 fold above background

Q: For FFRNVVWLIKKNSTYPT [BEI 28], which “in vitro CD4 response, fold above background” value is on record?
A: 3.7 fold above background

Q: Which “in vitro CD4 response, fold above background” value does the source give for YQGKSSFFRNVVWLIKK [BEI 27] here?
A: 12 fold above background

Test system: MHC class II molecules
Settings: cited from earlier work

Q: For LRMK (SEQ ID NO: 3), which “share of maximal activity of any member of the series of Ii-key peptides” value is on record?
A: at least 50%

Test system: CD4+ T cells (CD8+ depleted donor PBMC)
Assay type: cell-based, human
Settings: not given

Q: Which results are given for “Ac-LRMK-ava-TIKRSYNNTNQED—NH2 [Ii-Key peptide No. 177]”?
A: frequency of recognition (responding vaccine recipients / tested): 10/35; in vitro IFN-γ response (in words): strongest in vitro IFN-γ responses

Q: What does the source list for “Ac-LRMK-ava-HLLSRINHFEKIQ—NH2 [Ii-Key peptide No. 121]”?
A: frequency of recognition (responding vaccine recipients / tested): 9/35; in vitro IFN-γ response (in words): strongest in vitro IFN-γ responses

Q: Which “frequency of recognition (responding vaccine recipients / tested)” value does the source give for “Ac-LRMK-ava-KKNSAYPTIKRSY—NH2 [Ii-Key peptide No. 170]” here?
A: 9/35

Q: And the “in vitro IFN-γ response (in words)” value?
A: strongest in vitro IFN-γ responses
